Measurements: US4284773A, “1,2,3,5-Tetrahydroimidazothienopyrimidin-2-ones” (Daiichi Seiyaku Co., Ltd., priority 1978, dated 1981)

Experiments:
[1] = tested on: collagen (Coll) induced platelet aggregation; test: in vitro inhibition of collagen (Coll) induced platelet aggregation, aggregometer method of Born, rat platelet rich plasma; assay type: cell-based; conditions: rat citrated platelet rich plasma, 50% inhibition
Description: (§1) The aggregometer method of Born [G. V. Born, Nature, 194, 927 (1962)] was used to assess the in vitro activity of the various compounds as to inhibition of adenosine diphosphate (ADP) and collagen (Coll) induced platelet aggregation. Platelet rich plasma (PRP) was separated by centrifugation from citrated (0.313%) rat blood.
(§2) A methanolic solution of the test compound was added to the PRP, then aggregation was induced by adding to the mixture of ADP solution containing CaCl2 or a collagen suspension prepared according to the method described by Ashida et al [S. Ashida and Y. Abiko, Thromb. Diath. Haemorrh., 30, 528 (1975)], and the optical density of the resulting mixture was determined. […] A dose response curve was drawn from the results obtained above and the effective concentration giving a 50% inhibition (EC50) was calculated.

[2] = tested on: adenosine diphosphate (ADP) induced platelet aggregation; test: in vitro inhibition of adenosine diphosphate (ADP) induced platelet aggregation, aggregometer method of Born, rat platelet rich plasma; assay type: cell-based; conditions: rat citrated platelet rich plasma, 50% inhibition
Description: as §1, §2

[3] = tested on: Platelet aggregation induced by collagen suspension; test: ex vivo inhibition of collagen-induced platelet aggregation after oral administration in rat; conditions: 50 mg/kg (p.o) in rat, blood collected 2 hours after oral administration, vs vehicle control rats
Description: Blood samples were collected 2 hours after oral administration of the
compound to be tested or vehicle alone. Platelet rich plasmas were
obtained by centrifugation of the blood. Platelet aggregation was induced
by adding collagen suspension to the platelet rich plasma and was compare
with that observed with the platelet rich plasma from the control rats

[4] = blood pressure of normal rat after oral administration; assay type: in vivo; conditions: 50 mg/kg (p.o) in rat; 5-6 hours after oral administration
Description: The blood pressure of normal rat was measured at 5-6 hours after the oral administration at a dose of 50 mg/kg.

Compound | EC50 [1] [µM] | EC50 [2] [µM] | Inhibition of Platelet Aggregation ex vivo % Inhibition [3] [%] | Blood Pressure % Reduction [4]
Cc1cccc2c1CN1CC(=O)NC1=N2 [BL-3459, 6-methyl-1,2,3,5-tetrahydroimidazo[2,1-b]quinazolin-2-one, reference compound] | 0.8 | 5 | 57 | 35 + 3%
Cc1sc2c(c1C)CN1CC(=O)NC1=N2 [Compound 1, 6,7-dimethyl-1,2,3,5-tetrahydroimidazo[1,2-a]thieno[2,3-d]pyrimidin-2-one] | 1 | 5 | 84 | 5 ± 3%
Cc1csc2c1CN1CC(=O)NC1=N2 [Compound 4] | 15 | 19 |  | 
Cc1c(Cl)sc2c1CN1CC(=O)NC1=N2 [Compound 6] | 1.9 | 4.2 | 24 | 
O=C1CN2Cc3c(sc4c3CCCCC4)N=C2N1 [Compound 9] | 15 | 20 |  | 
O=C1CN2Cc3sccc3N=C2N1 [Compound 11] | 10 | 85 |  | 
Cc1scc2c1CN1CC(=O)NC1=N2 [Compound 14] | 3.5 | 17 | 32 | 
CCCc1c(CC)sc2c1CN1CC(=O)NC1=N2 [Compound 15] | 2.2 | 3 | 90 | 

Stronger by EC50 [1], values ahead:

EC50 [1] [µM] | EC50 [2] [µM] | Compound | Inhibition of Platelet Aggregation ex vivo % Inhibition [3] [%] | Blood Pressure % Reduction [4]
0.1 | 5 | O=C1CN2Cc3c(sc4c3CCCC4)N=C2N1 [Compound 8, 1,2,3,5,6,7,8,9-octahydroimidazo[1,2-a][1]benzothieno[2,3-d]pyrimidin-2-one] | 57 | 8 ± 2%
0.08 | 0.58 | CCCc1sc2c(c1C)CN1CC(=O)NC1=N2 [Compound 16] | 60 | 
0.19 | 2 | CCCCCc1sc2c(c1C)CN1CC(=O)NC1=N2 [Compound 17] |  | 
0.6 | 48 | CC1C(=O)NC2=Nc3sc4c(c3CN21)CCCC4 (stereo not shown) [Compound 18] |  | 
